According to ChEMBL document CHEMBL1141241, “3,6-disubstituted coumarins as mechanism-based inhibitors of thrombin and factor Xa” (J Med Chem, 2005):

How the values were obtained:
[1] = target: Prothrombin (Homo sapiens) (UniProt P00734); conditions: at 2 µM
Description: Inhibitory activity against human thrombin at 2 uM

[2] = target: Coagulation factor X (Homo sapiens) (UniProt P00742); test: Inhibitory activity against human FXa at 5 uM; values are per cent of control
[3] = Selectivity ratio for human thrombin over bovine trypsin

Sequence of Coagulation factor X (Homo sapiens) (P00742 41-179 limits assumed): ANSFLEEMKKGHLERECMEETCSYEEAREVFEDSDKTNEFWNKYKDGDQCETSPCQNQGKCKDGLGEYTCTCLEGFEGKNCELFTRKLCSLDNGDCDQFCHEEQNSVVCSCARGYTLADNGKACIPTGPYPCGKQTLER
Sequence of Coagulation factor X (Homo sapiens) (P00742 235-488 limits assumed): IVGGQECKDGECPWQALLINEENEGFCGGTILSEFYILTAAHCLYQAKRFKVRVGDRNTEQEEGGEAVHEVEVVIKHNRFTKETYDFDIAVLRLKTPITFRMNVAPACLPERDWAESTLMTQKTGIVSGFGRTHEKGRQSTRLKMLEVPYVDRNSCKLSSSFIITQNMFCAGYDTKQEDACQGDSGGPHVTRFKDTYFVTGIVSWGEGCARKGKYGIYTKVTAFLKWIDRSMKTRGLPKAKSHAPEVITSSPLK

Structure (SMILES)	residual activity [1] [%]	residual activity [2] [%]	Ratio [3]
O=C(Oc1cc(Cl)cc(Cl)c1)c1cc2cc(CCl)ccc2oc1=O	102	73	
O=C(Oc1ccccc1I)c1cc2cc(CCl)ccc2oc1=O	59	92	
CC(=O)OCc1ccc2oc(=O)c(C(=O)Oc3cccc(Cl)c3)cc2c1	91	82	
COc1cc(Cl)cc(OC(=O)c2cc3cc(CCl)ccc3oc2=O)c1	103	126	
O=C(Oc1cccc2ccccc12)c1cc2cc(CCl)ccc2oc1=O	115	109	
O=C(Oc1cccnc1)c1cc2cc(CCl)ccc2oc1=O	113	114	
O=C(Oc1cccc(C(F)(F)F)c1)c1cc2cc(CCl)ccc2oc1=O	66	134	
O=C(Oc1ccc2ccccc2c1)c1cc2cc(CCl)ccc2oc1=O	109	113	
O=C(Oc1ccccn1)c1cc2cc(CCl)ccc2oc1=O	100	89	
O=C(Oc1cccc(Cl)c1)c1cc2ccccc2oc1=O	107	77	
Cc1ccccc1OC(=O)c1cc2cc(CCl)ccc2oc1=O	79	103	
O=C(Oc1cccc(Cl)c1Cl)c1cc2cc(CCl)ccc2oc1=O	100	125	
O=C(Oc1cccc2cccnc12)c1cc2cc(CCl)ccc2oc1=O	107	114	
Cc1ccc(OC(=O)c2cc3cc(CCl)ccc3oc2=O)cc1	111	72	
O=C(OCc1ccccc1)c1cc2cc(CCl)ccc2oc1=O	95	110	
Cc1ccc2oc(=O)c(C(=O)Oc3cccc(Cl)c3)cc2c1	70	61	
O=C(Oc1ccccc1)c1cc2cc(CCl)ccc2oc1=O	60	59	
O=C(Oc1ccc2ncccc2c1)c1cc2cc(CCl)ccc2oc1=O	98	125	
O=C(Oc1cccc([N+](=O)[O-])c1)c1cc2cc(CCl)ccc2oc1=O	80	124	
O=C(Oc1ccc(I)cc1)c1cc2cc(CCl)ccc2oc1=O	99	80	
COc1cccc(OC(=O)c2cc3cc(CCl)ccc3oc2=O)c1	66	108	

Further lines, results first:

residual activity [1] [%]	residual activity [2] [%]	Ratio [3]	Structure (SMILES)
100	83		O=C(c1cccc(Cl)c1)c1cc2cc(CCl)ccc2oc1=O
8	33	55	O=C(Oc1cccc(Br)c1)c1cc2cc(CCl)ccc2oc1=O
97	89		O=C(Nc1cccc(Cl)c1)c1cc2cc(CCl)ccc2oc1=O
77	77		O=C(Cc1cccc(Cl)c1)c1cc2cc(CCl)ccc2oc1=O
	39		O=C(Oc1cc(Cl)ccc1Cl)c1cc2cc(CCl)ccc2oc1=O
107	60		O=C(Sc1cccc(Cl)c1)c1cc2cc(CCl)ccc2oc1=O
78	134		O=C(Oc1ccccc1Cl)c1cc2cc(CCl)ccc2oc1=O
24	61		O=C(Oc1cccc(F)c1)c1cc2cc(CCl)ccc2oc1=O
101	109		O=C(Oc1c(Cl)cccc1Cl)c1cc2cc(CCl)ccc2oc1=O
10	29	25	O=C(Oc1cccc(Cl)c1)c1cc2cc(CCl)ccc2oc1=O
107	102		O=C(Oc1ccc(Cl)cc1)c1cc2cc(CCl)ccc2oc1=O
27	73		O=C(Oc1cccc(I)c1)c1cc2cc(CCl)ccc2oc1=O
35	78		Cc1cccc(OC(=O)c2cc3cc(CCl)ccc3oc2=O)c1
